Patent US8802597B2, “Herbicidal pyrimidines” (E I du Pont de Nemours and Company, priority 2003, dated 2014)
Where two headings read alike, the source gives them in different places.

How the values were obtained:
Assay in all cases: Test C pre/postemergence
Format in all cases: in vivo
[1] = tested on: cocklebur (Xanthium strumarium); details: Xanthium strumarium, pre-emergence, Preemergence, scale 0 to 100, read-out: Plant response rating, Cocklebur
In short: (§1)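 Greenhouse herbicide screen, visual readout. Compound in solvent/surfactant applied preemergence at planting or postemergence to 1- to 4-leaf plants; assessed at 12–14 days on a 0–100 control scale.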

[2] = tested on: lambsquarters (Chenopodium album); details: Chenopodium album; for pest or weed control at 31 g/ha: 31 g ai/ha; for pest or weed control at 62 g/ha: 62 g ai/ha; for pest or weed control at 125 g/ha: 125 g ai/ha; for pest or weed control at 250 g/ha: 250 g ai/ha
In short: as §1

[3] = tested on: crabgrass (Digitaria sanguinalis); details: Digitaria sanguinalis; for pest or weed control at 31 g/ha: 31 g ai/ha; for pest or weed control at 62 g/ha: 62 g ai/ha; for pest or weed control at 125 g/ha: 125 g ai/ha; for pest or weed control at 250 g/ha: 250 g ai/ha
In short: as §1

[4] = tested on: common (oilseed) sunflower (Helianthus annuus); details: Helianthus annuus, pre-emergence, Preemergence, read-out: Plant response rating, Sunflower
In short: as §1

[5] = tested on: pigweed (Amaranthus retroflexus); details: Amaranthus retroflexus; for pest or weed control at 31 g/ha: 31 g ai/ha; for pest or weed control at 62 g/ha: 62 g ai/ha; for pest or weed control at 125 g/ha: 125 g ai/ha; for pest or weed control at 250 g/ha: 250 g ai/ha
In short: as §1

[6] = tested on: yellow nutsedge (Cyperus esculentus); details: Cyperus; for pest or weed control at 31 g/ha: 31 g ai/ha; for pest or weed control at 62 g/ha: 62 g ai/ha; for pest or weed control at 125 g/ha: 125 g ai/ha; for pest or weed control at 250 g/ha: 250 g ai/ha
In short: as §1

corn (Zea mays) = details: Zea mays; for Corn plant response rating (crop injury, 0 = no effect, 100 = complete kill) at 31 g/ha: 31 g ai/ha; for Corn plant response rating (crop injury, 0 = no effect, 100 = complete kill) at 62 g/ha: 62 g ai/ha; for Corn plant response rating (crop injury, 0 = no effect, 100 = complete kill) at 125 g/ha: 125 g ai/ha; for Corn plant response rating (crop injury, 0 = no effect, 100 = complete kill) at 250 g/ha: 250 g ai/ha
In short: as §1

[7] = post-emergence, Postemergence, scale 0 to 100 (0 no effect, 100 complete control), read-out: Lambsquarters plant response rating
[8] = pre-emergence, Preemergence, scale 0 to 100, 0 no effect, 100 complete control, read-out: Plant response rating, Lambsquarters
[9] = pre-emergence, Preemergence, scale 0 to 100, read-out: Plant response rating, Lambsquarters
[10] = post-emergence, Postemergence, scale 0 to 100 (0 no effect, 100 complete control), read-out: Crabgrass plant response rating
[11] = pre-emergence, Preemergence, scale 0 to 100, 0 no effect, 100 complete control, read-out: Plant response rating, Crabgrass
[12] = pre-emergence, Preemergence, scale 0 to 100, read-out: Plant response rating, Crabgrass
[13] = post-emergence, Postemergence, scale 0 to 100 (0 no effect, 100 complete control), read-out: Pigweed plant response rating
[14] = pre-emergence, Preemergence, scale 0 to 100, 0 no effect, 100 complete control, read-out: Plant response rating, Pigweed
[15] = pre-emergence, Preemergence, scale 0 to 100, read-out: Plant response rating, Pigweed
[16] = post-emergence, Postemergence, scale 0 to 100 (0 no effect, 100 complete control), read-out: Nutsedge, Yellow plant response rating
[17] = pre-emergence, Preemergence, scale 0 to 100, 0 no effect, 100 complete control, read-out: Plant response rating, Nutsedge, Yellow
[18] = pre-emergence, Preemergence, scale 0 to 100, read-out: Plant response rating, Nutsedge, Yellow
[19] = post-emergence, Postemergence, scale 0 to 100 (0 no effect, 100 complete control), read-out: Corn plant response rating
[20] = pre-emergence, Preemergence, scale 0 to 100, 0 no effect, 100 complete control, read-out: Plant response rating, Corn

COC(=O)c1nc(C(C)C)nc(N)c1Br [Compound 3] gave a pest or weed control at 125 g/ha ([1]; 125 g ai/ha) of 55%, a pest or weed control at 250 g/ha ([1]; 250 g ai/ha) of 70% and a pest or weed control at 31 g/ha ([2]; post-emergence, Postemergence, read-out: Plant response rating (scale of 0 to 100), Lambsquarters) of 75%. For the same compound, the pest or weed control at 62 g/ha [2, 7] was 90%, the pest or weed control at 125 g/ha [2, 7] was 90% and the pest or weed control at 250 g/ha ([2]; post-emergence, Postemergence, scale 0 to 100, read-out: Plant response rating, Lambsquarters) was 100%. It also gave a pest or weed control at 31 g/ha [2, 8] of 0%, a pest or weed control at 62 g/ha [2, 8] of 0% and a pest or weed control at 125 g/ha [2, 9] of 0%. The pest or weed control at 250 g/ha [2, 9] was 80%, the pest or weed control at 31 g/ha ([3]; post-emergence, Postemergence, read-out: Plant response rating (scale of 0 to 100), Crabgrass) was 0% and the pest or weed control at 62 g/ha [3, 10] was 0%. The pest or weed control at 125 g/ha [3, 10] was 0%, the pest or weed control at 250 g/ha ([3]; post-emergence, Postemergence, scale 0 to 100, read-out: Plant response rating, Crabgrass) was 0% and the pest or weed control at 31 g/ha [3, 11] was 0%. For the same compound, the pest or weed control at 62 g/ha [3, 11] was 0%, the pest or weed control at 125 g/ha [3, 12] was 0% and the pest or weed control at 250 g/ha [3, 12] was 0%. For the same compound, the pest or weed control at 31 g/ha ([4]; 31 g ai/ha, scale 0 to 100, 0 no effect, 100 complete control) was 0%, the pest or weed control at 62 g/ha ([4]; 62 g ai/ha, scale 0 to 100, 0 no effect, 100 complete control) was 0% and the pest or weed control at 125 g/ha ([4]; 125 g ai/ha, scale 0 to 100) was 0%. For the same compound, the pest or weed control at 250 g/ha ([4]; 250 g ai/ha, scale 0 to 100) was 0%, the pest or weed control at 31 g/ha ([5]; post-emergence, Postemergence, read-out: Plant response rating (scale of 0 to 100), Pigweed) was 60% and the pest or weed control at 62 g/ha [5, 13] was 65%. For the same compound, the pest or weed control at 125 g/ha [5, 13] was 75%, the pest or weed control at 250 g/ha ([5]; post-emergence, Postemergence, scale 0 to 100, read-out: Plant response rating, Pigweed) was 80% and the pest or weed control at 31 g/ha [5, 14] was 20%. For the same compound, the pest or weed control at 62 g/ha [5, 14] was 50%, the pest or weed control at 125 g/ha [5, 15] was 65% and the pest or weed control at 250 g/ha [5, 15] was 80%. The pest or weed control at 31 g/ha ([6]; post-emergence, Postemergence, read-out: Plant response rating (scale of 0 to 100), Nutsedge, Yellow) was 0%, the pest or weed control at 62 g/ha [6, 16] was 0% and the pest or weed control at 125 g/ha [6, 16] was 0%. For the same compound, the pest or weed control at 250 g/ha ([6]; post-emergence, Postemergence, scale 0 to 100, read-out: Plant response rating, Nutsedge, Yellow) was 0%, the pest or weed control at 31 g/ha [6, 17] was 0% and the pest or weed control at 62 g/ha [6, 17] was 0%. The pest or weed control at 125 g/ha [6, 18] was 0%, the pest or weed control at 250 g/ha [6, 18] was 0% and the Corn plant response rating (crop injury, 0 = no effect, 100 = complete kill) at 31 g/ha (corn (Zea mays); post-emergence, Postemergence, read-out: Plant response rating (scale of 0 to 100), Corn) was 0%. For the same compound, the Corn plant response rating (crop injury, 0 = no effect, 100 = complete kill) at 62 g/ha (corn (Zea mays); [19]) was 0%, the Corn plant response rating (crop injury, 0 = no effect, 100 = complete kill) at 125 g/ha (corn (Zea mays); [19]) was 0% and the Corn plant response rating (crop injury, 0 = no effect, 100 = complete kill) at 250 g/ha (corn (Zea mays); post-emergence, Postemergence, scale 0 to 100) was 0%. For the same compound, the Corn plant response rating (crop injury, 0 = no effect, 100 = complete kill) at 31 g/ha (corn (Zea mays); [20]) was 0%, the Corn plant response rating (crop injury, 0 = no effect, 100 = complete kill) at 62 g/ha (corn (Zea mays); [20]) was 0% and the Corn plant response rating (crop injury, 0 = no effect, 100 = complete kill) at 125 g/ha (corn (Zea mays); pre-emergence, Preemergence, scale 0 to 100, read-out: Plant response rating, Corn) was 0%. The Corn plant response rating (crop injury, 0 = no effect, 100 = complete kill) at 250 g/ha (corn (Zea mays); pre-emergence, Preemergence, scale 0 to 100) was 0%.
